Values quoted from earlier work in patent US20160354391A1, “USE IN SINGLE PILL/TABLET/CAPSULE OF MINOCYCLINE, FLUCONAZOLE AND ATORVASTATIN IN THE TREATMENT OF MULTIPLE SCLEROSIS” (priority 2014, published 2016).

How the values were obtained:
[1] = in vivo

Row | Compound | elimination time [1] | patients who develop thyroid autoimmune diseases
1 | C/C(O)=C(\C#N)C(=O)Nc1ccc(C(F)(F)F)cc1 [Teriflunomide] | up to 2 years | 
2 | Alemtuzumab |  | approximately 40%
